Entries after “also recorded” stand apart in the source; their conditions may differ.
How the values were obtained:
[1] = On target toxicity compared with EGFR inhibitors
[2] = system: osimertinib-resistant PC9 non-small cell lung cancer xenografts; assay: PC9 xenograft, Compound A with or without radiation, tumor volume; assay type: in vivo, mice
Method: (§1) Mice bearing locally advanced xenograft (PC9, RKO, or UMSCC74B) were treated with vehicle (control); daily oral gavage of Compound A (also referred to as DPI-503), radiation plus vehicle, or a combination of daily oral gavage of Compound A and radiation. Tumor volumes were measured using calipers at least three times a week.

[3] = system: cells driven by mt-KRAS, mt-BRAF, and mt-EGFR; assay: Oxidative stress in cells, hydrogen peroxide levels as marker; assay type: cell-based; conditions: six hours post treatment
Text: Signs of oxidative stress in cells were investigated after addition of increasing amounts of Compound A with hydrogen peroxide levels being chosen as a marker of increased oxidative stress. […] Consideration was given to ways of exploiting oxidative stress in these tumor types. Oxidative stress both contributes towards causing DNA damage, and makes DNA damage more difficult to repair. So a combination of an ODDER (e.g., Compound A) with a DNA damaging agent, such as radiation, may result in useful therapeutic regimen. Compound A and radiation was examined in vivo xenograft experiments in mt-EGFR, mt-KRAS, and mt-BRAF driven tumors. […] Thus, it is believed that ODDER compounds, such as Compound A, can be used in combination with radiation to treat localized tumors which express either mutant KRAS or mutant BRAF. […] Other ODDER compounds are also expected to have similar lower on target toxicity.

[4] = system: RKO BRAF V600E colorectal cancer tumors; assay: RKO xenograft, Compound A with or without radiation, tumor volume; assay type: in vivo, mice; conditions: mt-BRAF RKO, 100 mg/kg daily oral, 2 GY/day five days a week for 3 weeks
Method: as §1

SGLT1 = assay: Loss of EGFR-chaperoned transporter SGLT1 from cells; assay type: cell-based; conditions: along with EGFR
Text: (§2) It was reasoned that the activity seen in these susceptible tumor lines was largely due to EGFR KIFs. Tumors cells are always metabolically stressed, and in actual tumors poor circulation makes the stress even more severe on the tumor interior, which is usually hypoxic once the tumor has growth to more than 100 mm^3. […] As tumor cells try to run in […] glycolysis, they have a much larger glucose requirement than normal cells, and any hindrance of glucose import would be expected to stress cells, pushing them away from aerobic glycolysis, and towards oxidative phosphorylation to produce ATP, which in turn would almost certainly increase production of reactive oxygen intermediates (ROI) in these already abnormally metabolizing cells. The most common ways of disposing of ROI are via conjugation with glutathione, or reaction with various reducing enzymes, most of which rely on cysteine thiols for their RedOx ability. Both of these mechanisms require stressed cells to be able to import large amounts of cysteine, much of which is produced by the liver and put into circulation, as the high demand totally overwhelms endogenous cysteine biosynthesis (which requires methionine as its source of sulfur). […]

[5] = system: tumors driven by mt-KRAS or mt-BRAF; assay: NC160 Tumor Cell panel; assay type: cell-based; conditions: several tumors driven by mt-KRAS or mt-BRAF
EGFR = target: T1, EGFR (Homo sapiens, UniProt P00533); assay: Loss/depletion of EGFR from treated tumor cells; assay type: cell-based
T1 construct: they all coexpress wild-type (wt)—EGFR along with the KRAS or BRAF oncogene; endogenous in cells
T1 sequence (P00533 25-1210): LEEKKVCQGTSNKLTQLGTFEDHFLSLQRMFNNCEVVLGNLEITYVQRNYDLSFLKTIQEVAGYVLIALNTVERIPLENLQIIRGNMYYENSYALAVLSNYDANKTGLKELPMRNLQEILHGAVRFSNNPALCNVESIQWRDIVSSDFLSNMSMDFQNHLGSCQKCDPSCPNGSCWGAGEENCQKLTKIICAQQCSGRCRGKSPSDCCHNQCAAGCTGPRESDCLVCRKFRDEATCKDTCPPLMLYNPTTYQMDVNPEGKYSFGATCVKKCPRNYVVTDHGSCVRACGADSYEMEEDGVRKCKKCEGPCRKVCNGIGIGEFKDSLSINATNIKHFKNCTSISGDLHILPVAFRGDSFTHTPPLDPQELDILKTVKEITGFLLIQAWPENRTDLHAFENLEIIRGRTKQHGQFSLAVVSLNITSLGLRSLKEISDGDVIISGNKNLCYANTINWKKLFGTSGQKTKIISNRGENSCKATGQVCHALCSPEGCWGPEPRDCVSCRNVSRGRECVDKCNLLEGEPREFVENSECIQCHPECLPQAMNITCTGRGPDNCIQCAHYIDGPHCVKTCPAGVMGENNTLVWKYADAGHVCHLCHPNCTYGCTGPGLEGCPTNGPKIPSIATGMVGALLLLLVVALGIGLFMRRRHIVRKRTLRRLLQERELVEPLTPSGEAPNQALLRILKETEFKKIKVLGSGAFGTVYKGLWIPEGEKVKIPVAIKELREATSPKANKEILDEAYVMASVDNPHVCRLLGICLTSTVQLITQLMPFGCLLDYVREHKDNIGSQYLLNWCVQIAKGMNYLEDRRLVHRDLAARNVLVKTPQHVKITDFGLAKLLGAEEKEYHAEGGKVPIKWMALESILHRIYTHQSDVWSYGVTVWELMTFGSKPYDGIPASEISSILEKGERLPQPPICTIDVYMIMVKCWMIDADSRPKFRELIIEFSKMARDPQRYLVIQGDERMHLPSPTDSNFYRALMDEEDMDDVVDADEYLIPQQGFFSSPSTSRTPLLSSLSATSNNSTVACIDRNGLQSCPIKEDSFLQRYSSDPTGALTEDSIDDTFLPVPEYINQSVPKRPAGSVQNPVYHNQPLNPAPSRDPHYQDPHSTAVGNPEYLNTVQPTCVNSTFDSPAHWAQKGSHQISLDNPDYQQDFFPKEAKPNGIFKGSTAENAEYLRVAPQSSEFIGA
Text: However, binding of ODDERs to EGFR prevents activated EGFR from forming the stable molecular complexes required to protect them from being rapidly internalized and degraded by the normal cellular protein degradation mechanisms, which is exactly what these molecules were designed to do. […] The kinase catalytic domain then unbinds both the product, a tyrosyl phosphate monoester, and the byproduct ADP, and can then bind further ATP and substrate as the catalytic cycle continues. There appear to be two major uses for tyrosine phosphorylation in a substrate molecule. The first is that conformational changes in the substrate protein are often driven by the conversion of a neutral, somewhat hydrophobic, tyrosine side chain into a highly hydrophilic phosphotyrosine, with two negative charges at physiological pH. The second is that there are binding sites on many proteins for phosphotyrosine residues, which induce new protein-protein interactions for the substrate protein, frequently changing its cellular localization and/or allowing it to assemble into new multiprotein complexes, both of which can lead the substrate protein to show very different activities after phosphorylation. […] This recruits the intermediate proteins which lead to the activation of the before mentioned signaling cascades. […]

[6] = system: UMSCC74B KRAS G12D head and neck squamous cell carcinoma tumor; assay: UMSCC74B xenograft, Compound A with or without radiation, tumor volume; assay type: in vivo, mice; conditions: mt-KRAS UMSCC74B; 30 mg/kg biw for 2 weeks oral; 2 GY/day five days a week for 3 weeks
xCT = assay: Loss of EGFR-chaperoned transporter xCT from cells; assay type: cell-based; conditions: along with EGFR
Text: as §2

CN1CCC2(CC1)N=C(SCC(=O)Nc1cnc3ccccc3c1)C(c1ccc(Br)cc1)=N2 [Compound A]
on target toxicity [1]: much less on target toxicity than EGFR inhibitors
active tumor by gross pathology or histochemistry ([2]; Day 155, end of experiment, treatment group not named, presumably combination): active tumor could not be detected
anti-tumor effect of Compound A combined with radiation (tumor volume) ([2]; mt-EGFR PC9, 75 mg/kg five times a week for 3 weeks oral, 2 Gy/day five times a week for 3 weeks): unexpectedly exhibited efficacy; also recorded: strongly increased
H2O2 levels, dose dependence ([3]; increasing amounts of compound): dose-dependent increase
increase in cellular H2O2 levels ([3]; top dose tested): 2-4 fold
anti-tumor effect of Compound A combined with radiation (tumor volume) [4]: unexpectedly exhibited efficacy; also recorded: strongly increased
ablation of SGLT1 transporter (SGLT1): ablated along with EGFR
anti-proliferative activity [5]: considerable anti-proliferative activity
loss of EGFR from the cell surface (EGFR): loss of EGFR from the cell surface
anti-tumor effect of Compound A combined with radiation (tumor volume) [6]: unexpectedly exhibited efficacy; also recorded: strongly increased
ablation of xCT transporter (xCT): ablated along with EGFR
